Test results taken from ChEMBL document CHEMBL1151469, “Cytotoxic activity of N-chlorotaurine on Acanthamoeba spp” (Antimicrob Agents Chemother, 2008).

Tested on: Acanthamoeba castellanii
Experiment: Amoebicidal activity against Trophozoites of Acanthamoeba castellanii 4CL assessed as log reduction in cell count at 20 mM in peptone yeast extract glucose medium at pH 7 after 24 hrs by hemocytometer using trypan blue stain
Format: functional

O=S(=O)(O)CCNCl
Activity: 2
